Test results from the NIST ThermoML archive (doi:10.1021/acs.jced.8b01135).
“And” between values parts separate entries of the source, which are not always exact repeats. Equal entries are not always repeated.

What was measured:
[1] = Liquid; for speed of sound: Frequency=3 MHz, Single path-length method; for mass density: Vibrating tube method; for viscosity: Concentric cylinders viscometry
[2] = xn = mol fraction of the nth substance listed; conditions: 102 kPa, Liquid, x2 = 0; for speed of sound: Frequency=3 MHz, Single path-length method; for mass density: Vibrating tube method; for viscosity: Concentric cylinders viscometry

CCCC1CCCCC1 [1-cyclohexylpropane]
[1]
Conditions | mass density, 102 kPa [kg/m3] | speed of sound, 88 kPa [m/s] | speed of sound, 102 kPa [m/s] | viscosity, 102 kPa [mPa·s]
288.15 K | 797.42 | – | 1328.6 | –
293.15 K | 793.53 | 1307.7 | 1307.7 | 0.981
298.15 K | 789.63 | – | 1287.1 | –
303.15 K | 785.72 | 1266.6 | 1266.6 | 0.856
313.15 K | 777.88 | 1226.2 | 1226.2 | 0.75
323.15 K | 770 | 1186.5 | 1186.5 | 0.668
333.15 K | 762.09 | 1147.7 | 1147.7 | 0.594

CCCCCCCCCCC1CCCCC1 [decylcyclohexane]
[1], 102 kPa
Conditions | mass density [kg/m3] | speed of sound [m/s] | viscosity [mPa·s]
288.15 K | 821.93 | 1425.2 | –
293.15 K | 818.54 | 1406.4 | 5.34
298.15 K | 815.16 | 1387.7 | –
303.15 K | 811.78 | 1369.1 | 4.09
313.15 K | 805.02 | 1332.8 | 3.23
323.15 K | 798.26 | 1297.2 | 2.6
333.15 K | 791.49 | 1262.7 | 2.15

CCCCCCCCCCCC [dodecane]
[1], 102 kPa
Conditions | mass density | speed of sound [m/s] | viscosity [mPa·s]
288.15 K | 752.35 kg/m3 | 1317.2 | –
293.15 K | 748.72 kg/m3 | 1297.7 | 1.49
298.15 K | 745.09 kg/m3 | 1278.2 | –
303.15 K | 741.46 kg/m3 | 1259 | 1.27
313.15 K | 734.18 kg/m3 and 734.19 kg/m3 | 1221.1 | 1.08
323.15 K | 726.88 kg/m3 | 1184 | 0.934
333.15 K | 719.53 kg/m3 | 1147.8 | 0.813

CCCCCCCCCCCC [dodecane] + CCCC1CCCCC1
[2]
Conditions | mass density [kg/m3] | speed of sound [m/s] | viscosity [mPa·s]
288.15 K | 752.35 | 1317.2 | –
293.15 K | 748.72 | 1297.7 | 1.49
298.15 K | 745.09 | 1278.2 | –
303.15 K | 741.46 | 1259 | 1.27
313.15 K | 734.19 | 1221.1 | 1.08
323.15 K | 726.88 | 1184 | 0.934
333.15 K | 719.53 | 1147.8 | 0.813

CCCCCCCCCCCC [dodecane] + CCCCCC1CCCCC1
[2]
Conditions | mass density [kg/m3] | speed of sound [m/s] | viscosity [mPa·s]
288.15 K | 752.35 | 1317.2 | –
293.15 K | 748.72 | 1297.7 | 1.49
298.15 K | 745.09 | 1278.2 | –
303.15 K | 741.46 | 1259 | 1.27
313.15 K | 734.19 | 1221.1 | 1.08
323.15 K | 726.88 | 1184 | 0.934
333.15 K | 719.53 | 1147.8 | 0.813

CCCCCCCCCCCC [dodecane] + CCCCCCC1CCCCC1
[2]
Conditions | mass density [kg/m3] | speed of sound [m/s] | viscosity [mPa·s]
288.15 K | 752.35 | 1317.2 | –
293.15 K | 748.72 | 1297.7 | 1.49
298.15 K | 745.09 | 1278.2 | –
303.15 K | 741.46 | 1259 | 1.27
313.15 K | 734.19 | 1221.1 | 1.08
323.15 K | 726.88 | 1184 | 0.934
333.15 K | 719.53 | 1147.8 | 0.813

CCCCCCCCCCCC [dodecane] + CCCCCCCC1CCCCC1
[2]
Conditions | mass density [kg/m3] | speed of sound [m/s] | viscosity [mPa·s]
288.15 K | 752.35 | 1317.2 | –
293.15 K | 748.72 | 1297.7 | 1.49
298.15 K | 745.09 | 1278.2 | –
303.15 K | 741.46 | 1259 | 1.27
313.15 K | 734.19 | 1221.1 | 1.08
323.15 K | 726.88 | 1184 | 0.934
333.15 K | 719.53 | 1147.8 | 0.813

CCCCCCCCCCCC [dodecane] + CCCCCCCCC1CCCCC1
[2]
Conditions | mass density [kg/m3] | speed of sound [m/s] | viscosity [mPa·s]
288.15 K | 752.35 | 1317.2 | –
293.15 K | 748.72 | 1297.7 | 1.49
298.15 K | 745.09 | 1278.2 | –
303.15 K | 741.46 | 1259 | 1.27
313.15 K | 734.19 | 1221.1 | 1.08
323.15 K | 726.88 | 1184 | 0.934
333.15 K | 719.53 | 1147.8 | 0.813

CCCCCCCCCCCC [dodecane] + CCCCCCCCCCC1CCCCC1
[2]
Conditions | mass density [kg/m3] | speed of sound [m/s] | viscosity [mPa·s]
288.15 K | 752.35 | 1317.2 | –
293.15 K | 748.72 | 1297.7 | 1.49
298.15 K | 745.09 | 1278.2 | –
303.15 K | 741.46 | 1259 | 1.27
313.15 K | 734.19 | 1221.1 | 1.08
323.15 K | 726.88 | 1184 | 0.934
333.15 K | 719.53 | 1147.8 | 0.813

CCCCCCCCCCCC [dodecane] + CCCCCCCCCCCCC1CCCCC1
[2]
Conditions | mass density [kg/m3] | speed of sound [m/s] | viscosity [mPa·s]
288.15 K | 752.35 | 1317.2 | –
293.15 K | 748.72 | 1297.7 | 1.49
298.15 K | 745.09 | 1278.2 | –
303.15 K | 741.46 | 1259 | 1.27
313.15 K | 734.19 | 1221.1 | 1.08
323.15 K | 726.88 | 1184 | 0.934
333.15 K | 719.53 | 1147.8 | 0.813

CCCCCCCCCCCCC1CCCCC1 [dodecylcyclohexane]
[1], 102 kPa
Conditions | mass density [kg/m3] | speed of sound [m/s] | viscosity
288.15 K | 825.71 | 1441.5 | –
293.15 K | 822.36 | 1422.9 | 7.77 mPa·s and 7.76 mPa·s
298.15 K | 819.02 | 1404.8 | –
303.15 K | 815.68 | 1386.3 | 5.81 mPa·s
313.15 K | 809.03 | 1350.5 | 4.48 mPa·s
323.15 K | 802.38 | 1315.4 | 3.55 mPa·s
333.15 K | 795.75 | 1281.4 | 2.87 mPa·s and 2.88 mPa·s

CCCCCCCC1CCCCC1 [heptylcyclohexane]
[1], 102 kPa
Conditions | mass density | speed of sound [m/s] | viscosity [mPa·s]
288.15 K | 814.51 kg/m3 | 1393.6 | –
293.15 K | 811 kg/m3 | 1374.2 | 2.8
298.15 K | 807.49 kg/m3 | 1355.1 | –
303.15 K | 803.99 kg/m3 and 803.98 kg/m3 | 1336.1 | 2.25
313.15 K | 796.95 kg/m3 | 1298.8 | 1.85
323.15 K | 789.91 kg/m3 | 1262.2 | 1.55
333.15 K | 782.85 kg/m3 | 1226.7 | 1.31

CCCCCCC1CCCCC1 [hexylcyclohexane]
[1], 102 kPa
Conditions | mass density [kg/m3] | speed of sound [m/s] | viscosity [mPa·s]
288.15 K | 811.34 | 1380.4 | –
293.15 K | 807.76 | 1360.9 | 2.19
298.15 K | 804.19 | 1341.4 | –
303.15 K | 800.61 | 1322.1 | 1.79
313.15 K | 793.43 | 1284.2 | 1.52
323.15 K | 786.25 | 1247.1 | 1.3
333.15 K | 779.05 | 1211 | 1.12

CCCCCCCCC1CCCCC1 [octylcyclohexane]
[1], 102 kPa
Conditions | mass density | speed of sound [m/s] | viscosity [mPa·s]
288.15 K | 817.58 kg/m3 | 1405.5 | –
293.15 K | 814.13 kg/m3 | 1386.4 | 3.52
298.15 K | 810.67 kg/m3 | 1367.4 | –
303.15 K | 807.21 kg/m3 and 807.2 kg/m3 | 1348.6 | 2.79
313.15 K | 800.28 kg/m3 | 1311.6 | 2.26
323.15 K | 793.35 kg/m3 | 1275.5 | 1.87
333.15 K | 786.41 kg/m3 | 1240.3 | 1.57

CCCCCC1CCCCC1 [pentylcyclohexane]
[1], 102 kPa
Conditions | mass density [kg/m3] | speed of sound [m/s] | viscosity [mPa·s]
288.15 K | 807.78 | 1365.8 | –
293.15 K | 804.13 | 1346 | 1.69
298.15 K | 800.48 | 1326.4 | –
303.15 K | 796.82 | 1306.7 | 1.43
313.15 K | 789.49 | 1268.2 | 1.21
323.15 K | 782.14 | 1230.5 | 1.05
333.15 K | 774.75 | 1193.5 | 0.914
